# Results taken from article PMC8205030, “Methoxy and bromo scans on N-(5-methoxyphenyl) methoxybenzenesulphonamides reveal potent cytotoxic compounds, especially against the human breast adenocarcinoma MCF7 cell line” (Journal of Enzyme Inhibition and Medicinal Chemistry, 2021).
# How the values were obtained:
# [1] = target: T1, microtubular protein isolated from calf brain (Bos taurus, UniProt P81947+Q6B856); assay: Inhibition of tubulin polymerisation (turbidity); type: biochemical
# T1 construct: isolated from calf brain according to the modified Shelanski method; from tissue; host or cells: calf brain
# MCF7 cells = assay: Cell cycle analysis (PI, flow cytometry), MCF7; type: cell-based, human
# Procedure: (§1) MCF7, HeLa, and HT-29 cell cycle analyses were performed by quantifying the DNA content by flow cytometry. Cells in the exponential growth phase at 2 × 10^4 cells/mL were seeded in 24-well plates (1 ml/well). After 24 h incubation, cells were treated with compound 25 at 87.5 or 175 nM. After 24, 48, and 72 h treatments, live and dead cells were collected and fixed in ice-cold ethanol:PBS (7:3) and stored at 4 °C for later use. Cells were rehydrated with phosphate-buffered saline (PBS), treated with 100 µg/mL RNase A (Sigma-Aldrich Co., St. Louis, MO, USA), and stained overnight in darkness at room temperature with 50 µg/mL propidium iodide (PI) (Sigma-Aldrich Co.). Cell cycle profiles were then analysed by flow cytometry using BD Accuri™ C6 Plus Flow Cytometer (BD Biosciences, San José, CA, USA). Data were analysed with BD Accuri™ C6 Software (version 1.0.264.21, BD Biosciences, San José, CA, USA) and compared to control cells treated with 0.5% (v/v) DMSO. Compounds were dissolved in DMSO and the final solvent concentrations never exceeded 0.5% (v/v).
# [2] = Aqueous solubility (saturation shake-flask, UV); type: physicochemical; details: aqueous buffer, thermodynamic from solid, pH 7.0 phosphate buffer, room temperature
# Procedure: The aqueous solubility was determined in a Helios-α UV-320 Spectrophotometer Thermo-Spectronic, Thermo Fischer Scientific, Waltham, MA, USA) using an approach based on the saturation shake-flask method. 1–2 mg of each selected compound was suspended in 300 µL pH 7.0 buffer and stirred for 48 h at room temperature. The resulting mixture was filtered through a […] filter to discard the insoluble residues. A scan between 270 and 400 nm for the tested compound was performed and three wavelengths of maximum absorbance were selected. Calibration curves were performed at these wavelengths and the concentration in the supernatant was measured by UV absorbance. The final value was given as the average of the three measurements.
# HeLa cells = assay: Apoptotic cell death quantification (Annexin V-FITC/PI), HeLa; type: cell-based, human; details: 72 h
# Procedure: MCF7, HeLa, and HT-29 apoptotic cells were quantified using an Annexin V-FITC/PI apoptosis detection kit (Immunostep, Salamanca, Spain) according to the manufacturer’s guidelines. 1.5 ml/well of cells in the exponential growth phase at 2 × 10^4 cells/mL were seeded onto 12-well plates and left to attach overnight. After 24 h incubation, cells were treated with compound 25 at 87.5 or 175 nM. 72 h post-treatment, attached and floating cells of treated and untreated wells were collected, centrifuged, resuspended in the Annexin V binding buffer, and stained with Annexin V-FITC/PI. Cells were then incubated in darkness at room temperature for 15 min and a total of 30,000 cells were acquired and analysed using the BD Accuri™ C6 Plus Flow Cytometer and Software (version 1.0.264.21, BD Biosciences, San José, CA, USA), respectively. Compounds were dissolved in DMSO and the final solvent concentrations never exceeded 0.5% (v/v). Control wells included cells with 0.5% (v/v) DMSO.
# HT-29 cells = assay: Cell cycle analysis (PI, flow cytometry), HT-29; type: cell-based, human
# Procedure: as §1
# [3] = MCF7, 175 nM (higher dose), 48 h
# [4] = MCF7, 175 nM (higher dose), 72 h
# [5] = HT-29, 48 h, concentration not specified
# T1 sequence (Q6B856 whole entry): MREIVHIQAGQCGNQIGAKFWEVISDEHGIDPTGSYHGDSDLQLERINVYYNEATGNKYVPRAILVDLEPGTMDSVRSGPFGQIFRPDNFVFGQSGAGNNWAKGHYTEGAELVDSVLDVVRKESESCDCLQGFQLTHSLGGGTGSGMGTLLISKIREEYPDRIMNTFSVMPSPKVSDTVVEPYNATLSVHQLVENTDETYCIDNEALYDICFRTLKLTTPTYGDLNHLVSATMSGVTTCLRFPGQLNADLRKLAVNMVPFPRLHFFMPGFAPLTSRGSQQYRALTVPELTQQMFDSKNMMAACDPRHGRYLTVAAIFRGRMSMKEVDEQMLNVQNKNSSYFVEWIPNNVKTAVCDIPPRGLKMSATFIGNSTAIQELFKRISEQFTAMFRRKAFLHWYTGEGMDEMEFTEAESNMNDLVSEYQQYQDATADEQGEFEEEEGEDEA
# T1 sequence (P81947 whole entry): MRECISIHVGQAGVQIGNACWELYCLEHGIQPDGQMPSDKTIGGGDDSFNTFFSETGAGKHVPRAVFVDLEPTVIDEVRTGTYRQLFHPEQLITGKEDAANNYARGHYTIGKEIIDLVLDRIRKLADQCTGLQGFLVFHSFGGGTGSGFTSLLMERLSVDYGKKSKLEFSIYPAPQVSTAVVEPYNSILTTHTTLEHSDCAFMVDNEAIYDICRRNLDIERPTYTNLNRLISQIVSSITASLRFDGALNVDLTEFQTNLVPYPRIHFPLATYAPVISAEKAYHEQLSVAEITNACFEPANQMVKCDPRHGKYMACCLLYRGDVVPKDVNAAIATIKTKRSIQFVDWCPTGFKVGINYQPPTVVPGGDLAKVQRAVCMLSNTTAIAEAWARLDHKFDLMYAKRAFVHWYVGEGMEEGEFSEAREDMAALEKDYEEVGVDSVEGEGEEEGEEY
smiles,measurement,setting,value
"COc1ccc(S(=O)(=O)N(CC#N)c2cc(OC)c(Br)cc2OC)cc1 [Compound 25, N-(4-bromo-2,5-dimethoxyphenyl)-N-(cyanomethyl)-4-methoxybenzenesulphonamide]",TPI % 10 µM,"[1]; 10 µM compound, 1.5 mg/mL microtubular protein",51%
same,IC50,"[1]; in vitro tubulin polymerisation inhibition, read-out: TPI IC50",7.6 µM
same,Cells at G2/M phase,"MCF7 cells; MCF7, 87.5 nM, 24 h",66%
same,subG0/G1 population,"MCF7 cells; MCF7, 87.5 nM, 24 h",12%
same,Cells at G2/M phase,MCF7 cells; [3],55%
same,subG0/G1 population,MCF7 cells; [3],24%
same,Cells at G2/M phase,MCF7 cells; [4],58%
same,subG0/G1 population,MCF7 cells; [4],26%
same,Cells at G2/M phase,"MCF7 cells; MCF7, 175 nM, 24 h",60%
same,subG0/G1 population,"MCF7 cells; MCF7, 175 nM, 24 h",16%
same,solubility at 48 h,[2],1 µg/mL
same,Early apoptosis,HeLa cells; 87.5 nM,52.3%
same,Late apoptosis,HeLa cells; 87.5 nM,39.7%
same,Live (AnV–/PI–),HeLa cells; 87.5 nM,6.5%
same,Necrosis,HeLa cells; 87.5 nM,1.5%
same,Early apoptosis,HeLa cells; 175 nM,47.5%
same,Late apoptosis,HeLa cells; 175 nM,45.3%
same,Live (AnV–/PI–),HeLa cells; 175 nM,4.1%
same,Necrosis,HeLa cells; 175 nM,3.1%
same,Apoptotic profile,HeLa cells; 87.5 and 175 nM,> 90%
same,Cells at G2/M phase,"HT-29 cells; HT-29, 87.5 nM, 24 h",90%
same,Cells at G2/M phase,"HT-29 cells; HT-29, 87.5 nM, 72 h",58%
same,subG0/G1 population,"HT-29 cells; HT-29, 87.5 nM, 72 h",23%
same,Cells at G2/M phase,"HT-29 cells; HT-29, 175 nM, 24 h",83%
same,Cells at G2/M phase,"HT-29 cells; HT-29, 175 nM, 72 h",54%
same,subG0/G1 population,"HT-29 cells; HT-29, 175 nM, 72 h",31%
same,Cells at G2/M phase,HT-29 cells; [5],84%
same,subG0/G1 population,HT-29 cells; [5],9%
